# Entries after “also recorded” stand apart in the source; their conditions may differ.
# Key:
# zebrafish larvae = experiment: Inhibition of TBH-induced apoptosis in the brain of the zebrafish embryo (Acridine Orange); assay type: in vivo, zebrafish (Danio rerio); settings: zebrafish larvae 96 hpf, TBH 0.45 mM, compound 1 μg/ml, 24 h
# Description: To that end, an assay was performed on zebrafish larvae (96 hours post-fertilization). The fertilized eggs were obtained by a natural birth of adult zebrafish (AB strain) in the inventors' laboratory, carried out according to what is described in The Zebrafish Book [Westerfield, M. (1995) The Zebrafish Book. A Guide for the Laboratory Use of Zebrafish (Danio rerio). 3rd ed., University of Oregon Press, Eugene]. The eggs were collected in the 1st hour after spawning, washed and deposited in a clean Petri dish with embryo water (medium) (4.9 mM NaCl, 0.17 mM KCl, 0.33 mM CaCl.2H2O, 0.33 .mM MgSO4.7H2O, pH 7.2) prepared following the guidelines described in the book Zebrafish. Practical approach [Nusslein-Volhard, C and Dahm, R (2002) Zebrafish. Practical approach. Oxford: Oxford University Press].
# The inhibition caused by the NST0003, NST0004 and NST0005 compounds on cell death caused by the tert-butyl hydroperoxide (TBH) compound, which is a pro-oxidizing compound which induces specific neurotoxicity in zebrafish larvae by means of the mechanism of apoptosis, was analyzed.
# The larvae (at 96 hours post-fertilization [hpf]) were seeded in 96-well plates (3 larvae/well), performing a triplicate (3 wells) for experimental condition, thus obtaining an intra-assay triplicate. The larvae were treated in a total volume of embryo medium of 100 μl per well for the following conditions: (i) control (embryo medium); (ii), TBH [0.45 mM], which corresponds with the maximum tolerated dose (MTD), which induces neurotoxicity in the larvae but not mortality; and (iii) TBH [0.45 mM] and NST0003, NST0004 and NST0005, all at the concentration of 1 μg/ml. […]
# Thus, the control larvae and the treated larvae were immersed in 1 μg/ml of AO in embryo water at 28.5° C. for 60 minutes. […] AO is a fluorescent compound which can be readily measured and quantified with a fluorometer. Therefore, the larvae were anesthetized with tricaine (3-aminobenzoic acid ethyl ester) and homogenized for their subsequent reading in a fluorescence plate reader (excitation: 488 nm; emission: 530 nm). […]
# [1] = Crossing of the blood-brain barrier by PAMPA in vitro assay; assay type: in vitro ADME, pig; settings: acid forms, 100 μM, pH 7.4, 18 h
# Description: To that end, the PAMPA (Parallel Artificial Membrane Permeation Assay) assay was used, which uses a sandwich system contemplating the crossing of compounds by means of passive diffusion, preventing active transport.
# A mixture of commercial lipids derived from pig brain with a phospholipid composition very similar to that which forms the human BBB, called PBL (Porcine Polar Brain Lipid), was used to mimic the BBB, and it was stored at −20° C. dissolved in dodecane at 100 μg/ml in glass vials. The verapamil and theophylline were prepared at 10 mM in DMSO, whereas the acid forms of NST0003, NST0004 and NST0005 were prepared in water and were activated with 0.1 N NaOH at 4° C. for 12 h.
# At the time of the assay, 1.5 ml of the compounds to be evaluated at 100 μM were prepared in a phosphate buffer at pH 7.4, maintaining a constant concentration of DMSO of 1%. 5 μl of PBL at 20 μg/ml were added in a 96-well filter plate, with a polyvinylidene fluoride (PVDF) membrane, with a pore size of […] (MAIPN4550, Millipore). After 2 minutes, 300 μl of the phosphate buffer used to dilute the compounds were added. This plate was considered the “acceptor” plate and was placed in the top part of the sandwich. 300 μl of the compounds were added at 100 μM on another 96-well plate which is assembled with the previous one (MATRNP550 of Millipore) (called “donor”) and in triplicate. […] After that time, 100 μl of the wells of the donor plates and of the acceptor plates were transferred to a special 96-well plate for ultraviolet (UV) reading. […] The plate was introduced in a spectrophotometer in which a scan was carried out in UV from 230 to 498 nm, with readings every 4 nm. From the data provided by the spectrophotometer the percentage of barrier crossing as well as the effective permeability (Pe) were calculated by applying the following formula:
# [formula] […] [formula] • [Drug]acceptor=Absorbance of the acceptor well • [Drug]equilibrium=Absorbance of the mean of the basal wells/2 • VA=Volume of the acceptor well=0.3 cm^3 • VD=Volume of the donor well=0.3 cm^3 • Area=0.24 cm^2 • Time=64,000 s
smiles,measurement,setting,value
"CCC(=O)O[C@H]1C[C@@H](C)C=C2C=C[C@H](C)[C@H](CC[C@@H]3C[C@@H](O)CC(=O)O3)[C@H]21 [NST0003, (1S,3R,7S,8S,8aR)-1,2,3,7,8,8a-hexahydro-3,7-dimethyl-8-[2-[(2R,4R)-tetrahydro-4-hydroxy-6-oxo-2H-pyran-2-yl]ethyl-1-naphthalenyl propanoate]",reduction of apoptosis induced by TBH,zebrafish larvae,50.7±17.1%
same,crossing of the blood-brain barrier,[1],capable of crossing the blood-brain barrier
CC(C)C(=O)O[C@H]1C[C@@H](C)C=C2C=C[C@H](C)[C@H](CC[C@@H]3C[C@@H](O)CC(=O)O3)[C@H]21 [NST0004],reduction of apoptosis induced by TBH,zebrafish larvae,45.3±18.9%
same,crossing of the blood-brain barrier,[1],capable of crossing the blood-brain barrier
C[C@H]1C=C2C=C[C@H](C)[C@H](CC[C@@H]3C[C@@H](O)CC(=O)O3)[C@H]2[C@@H](OC(=O)C(C)(C)C)C1 [NST0005],reduction of apoptosis induced by TBH,zebrafish larvae,34.3±17.3%
same,crossing of the blood-brain barrier,[1],highest capacity to cross the BBB; also recorded: capable of crossing the blood-brain barrier

# Reference: patent publication US20110319484A1, “NEUROPROTECTIVE COMPOUNDS” (Parque Tecnologico de Ciencias de la Salud, priority 2009, published 2011)
